Data on 32 compounds can be found in the supplement of paper PMC11616607.

The first experiment relates to Ovsaho. In words: drug sensitivity score (DSS) from 5-point dose-response viability curve (DSS (area-under-curve based score)); higher = more sensitive (stronger growth inhibition or killing); extreme values may be limits of the assay. The conditions noted are these: exposure time: 72 h; concentration range: 5 concentrations over 10,000-fold range. Put shortly:
(§1)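 Drug sensitivity scores were calculated in Breeze software for each cell line and drug pair; higher scores indicate more sensitivity. A score of zero indicates no response. The underlying assay used 384-well plates: drugs were placed by an Echo 550 acoustic dispenser at five concentrations spanning a 10,000-fold range, 1,500 ovarian cancer or normal ovarian cells were added per well, and cells were kept 3 days at 37°C, 5% CO2. Viability was then measured with CellTiter-Glo luminescence on a PHERAstar FS.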
In the case of `Nc1cc(COc2c(Cl)cc(C[C@H](N)C(=O)O)cc2Cl)c2oc(-c3ccccc3)nc2c1` [JPH203], the drug sensitivity score is 0.
`CC(C)NC(=O)COc1cccc(-c2nc(Nc3ccc4[nH]ncc4c3)c3ccccc3n2)c1` [KD025] returned a drug sensitivity score of 1.9.
The compound `CS(=O)(=O)CCNCc1ccc(-c2ccc3ncnc(Nc4ccc(OCc5cccc(F)c5)c(Cl)c4)c3c2)o1` [Lapatinib] returned a drug sensitivity score of 0.
Same read-out and setting: the figure for `O=C(Nc1cnn2ccc(N3CCC[C@@H]3c3cc(F)ccc3F)nc12)N1CC[C@H](O)C1` [Larotrectinib] is 0; for `Oc1ccc2c(c1)CC[C@H](c1ccccc1)[C@@H]2c1ccc(OCCN2CCCC2)cc1` [Lasofoxifene] it is 0.
`Nc1cccc2c1CN(C1CCC(=O)NC1=O)C2=O` (stereo not drawn) [Lenalidomide] registered a drug sensitivity score of 0.
Turning to `COc1cc2nccc(Oc3ccc(NC(=O)NC4CC4)c(Cl)c3)c2cc1C(N)=O` [Lenvatinib], the drug sensitivity score was 0.1.
As for `N#Cc1ccc(C(c2ccc(C#N)cc2)n2cncn2)cc1` [Letrozole], the drug sensitivity score was determined as 0.
Regarding `Cc1ccc(F)c(NC(=O)Nc2ccc(-c3cccc4[nH]nc(N)c34)cc2)c1` [Linifanib], the drug sensitivity score stood at 0.
Take `C[C@]1(O)C[C@@H](c2nc(-c3ccc4ccc(-c5ccccc5)nc4c3)c3c(N)nccn32)C1` [Linsitinib]: the drug sensitivity score was determined as 0.
The compound `CCNCCS(=O)(=O)NC[C@@]1(c2ccccc2)SC(NC(=O)C(C)(C)C)=NN1C(=O)C(C)(C)C` [Litronesib] displayed a drug sensitivity score of 7.8.
Take `Nc1nc(OCc2cc(Br)cs2)c2[nH]cnc2n1` [Lomeguatrib]: the drug sensitivity score was 2.5.
For the compound `NC(=O)N1CCC(CC(=O)N2CCC([C@H]3c4ncc(Br)cc4CCc4cc(Cl)cc(Br)c43)CC2)CC1` [Lonafarnib], the drug sensitivity score amounted to 9.8.
The compound `Cc1c(F)cc(C(=O)NC2CC2)cc1-c1ccc(C(=O)NCC(C)(C)C)cn1` [Losmapimod] had a drug sensitivity score of 0.7.
On to `CC[C@H](C)C(=O)O[C@H]1C[C@@H](C)C=C2C=C[C@H](C)[C@H](CC[C@@H]3C[C@@H](O)CC(=O)O3)[C@H]21` [Lovastatin], for which the drug sensitivity score amounted to 0.7.
Compound `CNC(=O)c1cccc2cc(Oc3ccnc4cc(OCC5(N)CC5)c(OC)cc34)ccc12` [Lucitanib] had a drug sensitivity score of 0.8.
The compound `CCNC(=O)c1noc(-c2cc(C(C)C)c(O)cc2O)c1-c1ccc(CN2CCOCC2)cc1` [Luminespib] gave a drug sensitivity score of 8.7.
In the case of `O=C(O)CC[C@H]1CC[C@@](c2cc(F)ccc2F)(S(=O)(=O)c2ccc(Cl)cc2)CC1` [MK-0752], the drug sensitivity score stood at 0.
With `NC1(c2ccc(-c3nc4ccn5c(=O)[nH]nc5c4cc3-c3ccccc3)cc2)CCC1` [MK-2206], the drug sensitivity score was found to be 2.6.
Still for that read-out and setting: the result for `O=C(c1cccc(Cl)c1F)N1CCN(Cc2cccc(Nc3nccs3)n2)CC1` [MK-8745] reads 0.2.
Still for that read-out and setting: the figure for `Cn1cc(-c2cnn3c(N)c(Br)c([C@@H]4CCCNC4)nc23)cn1` [MK-8776] is 0.
In the case of `Cc1cnc(-c2ccccc2C(C)C)nc1NCc1ccc(-n2ccnn2)cc1` [ML323], the drug sensitivity score was found to be 0.
For the compound `O=C(CCNC(=O)c1ccc(OC(F)(F)F)cc1)N[C@@H]1CCCc2ccccc21` [ML390], the drug sensitivity score is 4.1.
For the compound `O=C(Nc1cccc(NC(=O)c2cccc(O)c2O)c1)c1cccc(O)c1O` [MST-312], the drug sensitivity score was found to be 9.7.
Turning to `CNC(=O)[C@@H](NC(=O)[C@H](CC(C)C)[C@H](O)C(=O)NO)C(C)(C)C` [Marimastat], the drug sensitivity score came to 0.
Take `Cc1ccc(NC(=O)c2ccc(CN3CCN(C)CC3)cc2)cc1Nc1nc(-c2cccnc2)cs1` [Masitinib]: the drug sensitivity score came out at 0.8.
`CC(=O)O[C@]1(C(C)=O)CC[C@H]2[C@@H]3C=C(C)C4=CC(=O)CC[C@]4(C)[C@H]3CC[C@@]21C` [Megestrol acetate] gave a drug sensitivity score of 0.
Turning to `CCN(CC)CCCC(C)Nc1c2ccc(Cl)cc2nc2ccc(OC)cc12` (stereo not drawn) [Mepacrine], the drug sensitivity score amounted to 13.1.
Compound `S=c1[nH]cnc2nc[nH]c12` [Mercaptopurine] registered a drug sensitivity score of 5.5.
`Cc1ccc(C(=O)Nc2ccc(Oc3cc4cnn(C)c4cc3-c3cn[nH]c3)c(F)c2)c(=O)n1-c1ccc(F)cc1` [Merestinib] showed a drug sensitivity score of 0.
For `CN(C)C(=N)NC(=N)N` [Metformin], the drug sensitivity score came to 0.
Take `CN(Cc1cnc2nc(N)nc(N)c2n1)c1ccc(C(=O)N[C@@H](CCC(=O)O)C(=O)O)cc1` [Methotrexate]: the drug sensitivity score was found to be 2.9.

A further experiment concerns OVCAR4. Described as above. The settings on record: exposure time: 72 h; concentration range: 5 concentrations over 10,000-fold range. Put shortly: as §1
Take `Nc1cc(COc2c(Cl)cc(C[C@H](N)C(=O)O)cc2Cl)c2oc(-c3ccccc3)nc2c1` [JPH203]: the drug sensitivity score came to 0.2.
Compound `CC(C)NC(=O)COc1cccc(-c2nc(Nc3ccc4[nH]ncc4c3)c3ccccc3n2)c1` [KD025] yielded a drug sensitivity score of 3.6.
`CS(=O)(=O)CCNCc1ccc(-c2ccc3ncnc(Nc4ccc(OCc5cccc(F)c5)c(Cl)c4)c3c2)o1` [Lapatinib]: the drug sensitivity score came out at 0.
With `O=C(Nc1cnn2ccc(N3CCC[C@@H]3c3cc(F)ccc3F)nc12)N1CC[C@H](O)C1` [Larotrectinib], the drug sensitivity score turned out to be 0.
As for `Oc1ccc2c(c1)CC[C@H](c1ccccc1)[C@@H]2c1ccc(OCCN2CCCC2)cc1` [Lasofoxifene], the drug sensitivity score was 0.
In the case of `Nc1cccc2c1CN(C1CCC(=O)NC1=O)C2=O` (stereo not drawn) [Lenalidomide], the drug sensitivity score came to 0.
The same measure, in the same setting: the figure for `COc1cc2nccc(Oc3ccc(NC(=O)NC4CC4)c(Cl)c3)c2cc1C(N)=O` [Lenvatinib] is 0.6; for `N#Cc1ccc(C(c2ccc(C#N)cc2)n2cncn2)cc1` [Letrozole] it is 0.
Turning to `Cc1ccc(F)c(NC(=O)Nc2ccc(-c3cccc4[nH]nc(N)c34)cc2)c1` [Linifanib], the drug sensitivity score was 0.
In turn, `C[C@]1(O)C[C@@H](c2nc(-c3ccc4ccc(-c5ccccc5)nc4c3)c3c(N)nccn32)C1` [Linsitinib] came in with a drug sensitivity score of 0.
In the case of `CCNCCS(=O)(=O)NC[C@@]1(c2ccccc2)SC(NC(=O)C(C)(C)C)=NN1C(=O)C(C)(C)C` [Litronesib], the drug sensitivity score was found to be 4.9.
Compound `Nc1nc(OCc2cc(Br)cs2)c2[nH]cnc2n1` [Lomeguatrib] gave a drug sensitivity score of 0.
For `NC(=O)N1CCC(CC(=O)N2CCC([C@H]3c4ncc(Br)cc4CCc4cc(Cl)cc(Br)c43)CC2)CC1` [Lonafarnib], the drug sensitivity score came to 9.1.
Take `Cc1c(F)cc(C(=O)NC2CC2)cc1-c1ccc(C(=O)NCC(C)(C)C)cn1` [Losmapimod]: the drug sensitivity score was found to be 0.
Still for that read-out and setting: the figure for `CC[C@H](C)C(=O)O[C@H]1C[C@@H](C)C=C2C=C[C@H](C)[C@H](CC[C@@H]3C[C@@H](O)CC(=O)O3)[C@H]21` [Lovastatin] is 0.2; for `CNC(=O)c1cccc2cc(Oc3ccnc4cc(OCC5(N)CC5)c(OC)cc34)ccc12` [Lucitanib] it is 2.4.
